Tests used:
[1] = Retrospective study of INR fluctuations outside the target therapeutic INR range in 1,615 patients of the MHI warfarin clinic (Rosendaal method); type: in vivo, human; details: post-stabilization follow up period (first six months and hospitalization periods excluded)
Description: (§1) The study was focused on the post INR-stabilization period by excluding the first six months of therapy, and further excluded hospitalization periods. […] INR fluctuations were measured according to the Rosendaal method based on linear interpolation.

[2] = Pilot genetic study of INR fluctuations in 324 post INR-stabilization atrial fibrillation patients by CYP4F2 rs2108622 and NR1I2 rs6772976 genotype; type: in vivo, human
Description: as §1
For the pilot genetic study, 324 patients with atrial fibrillation were selected, for whom therapy was started prior to Aug. 1, 2005, with a follow up of 36 months or more and with at most 70 years of age. […] Genotyping was conducted using the Sequenom technology.

CC(=O)CC(c1ccccc1)c1c(O)c2ccccc2oc1=O (stereo not shown) [warfarin]
time above target therapeutic INR range [1]: 17.2% | average % of the time above the patient-specific target therapeutic INR range ([2]; patients with CYP4F2 rs2108622 CC genotype): 17.1% | average % of the time above the patient-specific target therapeutic INR range ([2]; patients with CYP4F2 rs2108622 CT genotype): 15.9% | average % of the time above the patient-specific target therapeutic INR range ([2]; patients with CYP4F2 rs2108622 TT genotype): 29.6%

— patent US8563241B2 (Institut de Cardiologie de Montreal, priority 2009, dated 2013)
